# Measured values from patent US12115161B2, “Prophylactic and/or therapeutic agent for inflammatory diseases which contains pyrrolopyrimidine compound as active ingredient” (KEIO UNIVERSITY, priority 2018, dated 2024).
# Key:
# [1] = tested on: human monocytic cell line THP-1; experiment: IL-6 production inhibitory effect of BAFF in IFNγ-precultured THP-1 cells (Example 2); type: cell-based; conditions: for relative amount of IL-6 production: 30 μM, control (BAFF only) = 100%
# Experimental: In 24-well plates (manufactured by Corning Inc.) in a RPMI-1640 culture medium (produced by ATCC) containing 10% fetal bovine serum (produced by JRH Biosciences), 5×10^5 cells of human monocytic leukemia cell line THP-1 (obtained from a bioresource bank, Japanese Collection of Research Bioresource) were seeded per well. IFNγ (interferon γ, produced by BD Pharmingen) was added to a final concentration of 200 ng/mL and cultured in a 5% CO2 environment at 37° C. After four days of culture, the culture broth in each well was removed and the cells were washed twice with the culture medium, followed by addition of the culture medium containing a final concentration of 2 μg/mL of recombinant human soluble BAFF (produced by Chemicon), and respective test compounds were added to a final concentration of 20 μM or 2 μM to continue the culture in the same conditions. After three days of culture, the culture supernatant was collected to determine the IL-6 content in the supernatant by ELISA. For ELISA, mouse anti-human IL-6 antibody (produced by BD Pharmingen), biotin-labeled anti-human IL-6 antibody (produced by BD Pharmingen), and HRP-labeled streptavidin (produced by BD Pharmingen) were used. The test compound groups were used by purchasing from Asinex. In the test system, Compound 27 (BIK-13) in PTL 1 was used as a positive control (compound with inhibitory action on IL-6 production by monocytic cells). BIK-13 was the same as the compound of ADM 12880656 by Asinex Japan Inc.
# In the presence of 200 ng/mL recombinant human IFNγ (same as Example 1) (entire culture scale of 24-well culture plates at 2 mL/well), 5×10^5 cells of human monocytic cell line THP-1 (same as Example 1) were cultured using a 10% FBS/RPMI 1640 culture medium in a 5% CO2 environment at 37° C. for four days (96 hours). Four days later, an operation of removing the supernatant, adding a new medium, leaving it still in an incubator, and removing the supernatant was repeated twice. After removing the supernatant, recombinant human BAFF (2 μg/mL) was dissolved together with Compound A (ADM 12880492, Asinex Japan Inc.) or Compound B (ADM 12880696, Asinex Japan Inc.) in a medium and added to the culture wells to be cultured for three days. Three days later, the culture supernatant was collected to determine the IL-6 content in the culture supernatant by IL-6 specific ELISA. As a control, instead of Compound A or Compound B, BIK-13 was used.
# [2] = tested on: human peripheral blood monocytes; experiment: IL-6 production inhibitory effect of BAFF from human peripheral blood monocytes (Example 3); type: cell-based; conditions: for IL-6 production inhibitory effect compared with the control: 4 days
# Experimental: Monocytes were isolated from normal healthy human peripheral blood using CD14-microbeads. In the presence of 2 μg/mL recombinant human BAFF (same as Example 2) and Compound A (2 μM and 10 μM) (entire culture scale of 24-well culture plates at 2 mL/well), 5×10^5 of the isolated monocytes were cultured using a 10% FBS/RPMI 1640 culture medium in a 5% CO2 environment at 37° C. for four days. Four days later, the supernatant was removed to determine the IL-6 content in the culture supernatant by IL-6 specific ELISA. For comparison, experiments using BIK-13 instead of Compound A were also performed.
# [3] = tested on: peripheral blood monocytes and B cells from Sjögren syndrome patients; experiment: IgG production in coculture of BAFF-stimulated peripheral blood monocytes and B cells (Example 4); type: cell-based, human; conditions: for IL-6 production inhibitory effect compared with the control: 4 days
# Experimental: Monocytes were isolated from Sjögren syndrome patient peripheral blood using CD14 microbeads, and B cells were isolated from the peripheral blood using CD19 microbeads. Using Transwell® culture plates, 2×10^5 monocytes per well were seeded in the upper plate and 1×10^5 B cells in the lower plate to be cultured in the presence of 2 μg/mL recombinant human BAFF (same as Example 2) and Compound A (1 μM and 10 μM) using a 10% FBS/RPMI 1640 culture medium in a 5% CO2 environment at 37° C. for four days (coculture of the peripheral blood monocytes and the B cells via a membrane). Four days later, the supernatant was removed and the culture supernatant was collected to determine the IgG content in the culture supernatant by ELISA. As controls, experiments in the case of not adding Compound A and the case of adding neither Compound A nor BAFF were also performed. Moreover, for comparison with the effects of Compound A, experiments using BIK-13 instead of Compound A were also performed.
# [4] = tested on: peripheral blood mononuclear cells (PBMC); experiment: IgG production by B cell-stimulation culture using peripheral blood mononuclear cells (Example 5); type: cell-based, human; conditions: 7 days (results not shown)
# Experimental: Peripheral blood mononuclear cells were isolated from normal healthy human peripheral blood by density gradient centrifugation using Ficoll. In the presence of 5 μg/mL anti-human IgM antibody, 1 μg/mL anti-human CD40 antibody, 30 ng/mL recombinant human IL-21, 30 ng/mL recombinant human BAFF, and Compound A (0.4 μM, 2 μM, and 10 μM), 2×10^5 peripheral blood mononuclear cells were cultured using a 10% FBS/RPMI 1640 culture medium in a 5% CO2 environment at 37° C. for seven days. The cells were cultured in 96-well round-bottom culture plates in a scale of 200 μL per well. Seven days later, the supernatant was removed and the culture supernatant was collected to determine the IgG content in the culture supernatant by ELISA. As controls, experiments in the case of not adding Compound A and the case of adding neither Compound A nor BAFF were also performed. Moreover, for comparison with the effects of Compound A, experiments using BIK-13 instead of Compound A were also performed.
SMILES,"IL-6 production inhibitory effect compared with the control ([1]; 0.04 μM, 0.2 μM and 1 μM together with 2 μg/mL human BAFF, 3 days, ELISA)",relative amount of IL-6 production [1],IL-6 production inhibitory effect compared with BIK-13 ([1]; THP-1 system of Example 2),"IL-6 production inhibitory effect compared with adding no compound ([1]; 1.2 μM with 2 μg/mL human BAFF, 3 days)","IL-6 production inhibitory effect compared with adding no compound ([1]; 6 μM and 30 μM with 2 μg/mL human BAFF, 3 days)",IL-6 production inhibitory effect compared with the control ([2]; 2 μM with 2 μg/mL human BAFF),IL-6 production inhibitory effect compared with the control ([2]; 10 μM with 2 μg/mL human BAFF),"relative amount of IL-6 production ([2]; 10 μM, control = 100%)",IL-6 production inhibitory effect compared with the control ([3]; 1 μM with 2 μg/mL human BAFF),IL-6 production inhibitory effect compared with the control ([3]; 10 μM with 2 μg/mL human BAFF),"cancellation of the IgG antibody production enhancement by BAFF ([3]; 10 μM, compared with adding neither compound nor BAFF)",IL-6 production inhibitory effect compared with the control ([4]; 0.4 μM and 2 μM),IL-6 production inhibitory effect compared with the control ([4]; 10 μM)
"Cc1c(C)n(C2CCCC2)c2ncnc(OC3CCN(CCC#N)CC3)c12 [Compound B, 3-[4-{(7-cyclopentyl-5,6-dimethyl-7H-pyrrolo[2,3-d]pyrimidin-4-yl)oxy}piperidin-1-yl]propanenitrile]",significant (p<0.001) IL-6 production inhibitory effects,below 50%,stronger IL-6 production inhibitory effect than BIK-13,–,–,–,–,–,–,–,–,–,–
"Cc1c(C)n(C2CCCC2)c2ncnc(OC3CCN(C(=O)CN4CCCC4=O)CC3)c12 [BIK-13, reference compound]",–,52.8±2.2%,–,no significant difference,significant (p<0.001) IL-6 production inhibitory effects,no significant difference,significant (p<0.05) IL-6 production inhibitory effect,80.2±14.5%,no significant difference,significant (p<0.01) IL-6 production inhibitory effect,not completely cancelled,no significant difference,significant (p<0.01) IL-6 production inhibitory effect
